The text below walks through data of patent US20240228448A1 (Washington University, priority 2021, published 2024).

Series [1] is described as follows: Ex-vivo rat biodistribution and EAE rat PET studies of [18F]TZ82112. To be noted: in words.
Series [2] can be described thus: HPLC radiometabolite analysis of rat plasma and rat brain, [18F]TZ82112. It counts as in vivo. To be noted: in words. The text has this: (§1) Considering the high NHP brain uptake and clinically favorable pharmacokinetics compared to other F-18 S1PR1 radiotracers such as [^18F]FCS1P1 and [^18F]4877, we believe [^18F]TZ82112 is worth to transfer into clinical evaluation to confirm [18F]TZ82112 is the best S1PR1 radiotracer for clinical assessment of the neuroinflammation status by measurement of the S1PR1 receptor expression level. On the other side, as a S1PR1 radiotracer, [^18F]TZ82112 has its limitation for preclinical investigation because it quickly metabolites to form a lipophilic radiometabolite which will increase noise signal for PET measurement of S1PR1 expression in inflamed tissues.

The nature of series [3]: HPLC radiometabolite analysis of nonhuman primate plasma, [18F]TZ82112. It counts as in vivo. The conditions noted are these: NHP plasma compared with rat plasma, in words.
Text: as §1

In a further series the test system is S1PR1. Description: NHP PET brain imaging blocking studies. It counts as in vivo, nonhuman primate. To be noted: NHP PET self-blocking, in words.
For another series, the target named is S1P2 (Homo sapiens, UniProt O95136). The experiment in a line: competitive S1Ps cell membrane binding assay against [32P]S1P, S1P2. To be noted: Table 6.
A further series concerns the target S1P3 (Homo sapiens, UniProt Q99500). Description: competitive S1Ps cell membrane binding assay against [32P]S1P, S1P3. To be noted: Table 6.
The next series addresses S1P5 (Homo sapiens, UniProt Q9H228). The experiment in a line: competitive S1Ps cell membrane binding assay against [32P]S1P, S1P5.
The target in series [4] is S1P1 (Homo sapiens, UniProt P21453). Description: competitive S1Ps cell membrane binding assay against [32P]S1P, S1P1.
Text: (§2) One way to measure affinity is use of a general competition binding assay.
The next series deals with T1, S1P4 (Homo sapiens, UniProt O95977).
T1 sequence (O95977 1-384): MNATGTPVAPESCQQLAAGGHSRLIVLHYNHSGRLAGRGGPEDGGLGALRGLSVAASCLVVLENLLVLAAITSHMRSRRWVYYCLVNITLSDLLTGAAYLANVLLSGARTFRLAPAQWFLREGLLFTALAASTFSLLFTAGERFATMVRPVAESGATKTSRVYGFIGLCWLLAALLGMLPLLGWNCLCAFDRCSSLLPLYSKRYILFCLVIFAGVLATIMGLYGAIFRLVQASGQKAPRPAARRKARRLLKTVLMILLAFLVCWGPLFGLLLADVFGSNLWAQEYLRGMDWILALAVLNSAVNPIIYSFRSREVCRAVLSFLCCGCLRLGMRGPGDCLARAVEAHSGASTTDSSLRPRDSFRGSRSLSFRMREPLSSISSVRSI
The experiment in a line: competitive S1Ps cell membrane binding assay against [32P]S1P, S1P4. To be noted: Table 6; read-out: IC50 for S1P4.

The target in series [5] is T2, S1P1 (Mus musculus, UniProt O08530).
T2 construct: from tissue; host or cells: living mice (whole body, brain, tissues)
The experiment in a line: PET with [18F]TZ4877 in S. aureus infected mice. In kind it is in vivo. To be noted: microPET, in words. Here is the method:
Mice were euthanized at 30 min, and S. aureus was injected 24 hours prior to radiotracer injection. […] IHC staining was used for confirmation in infected versus sham controls (FIG. 12E). Increasing signals of the inflammation related cytokines and chemokines were detected in liver.

The subject of another series is S1P2-5. Description: competitive S1Ps cell membrane binding assay against [32P]S1P, S1P2-5 reported together. The conditions noted are these: for selectivity over S1P2-5: in words.
Where [6] appears, read: Table 5, read-out: IC50 (nM) S1P5.
Setting [7] is: Table 6, read-out: IC50 for S1P5.
Setting [8] is: read-out: IC50 (nM) S1P1, Table 7.
[9] abbreviates: Table 7, read-out: IC50 (nM) S1P2-5.

Several values for one entry are separate records, joined by “and”; a condition that tells them apart may be missing. Identical values can stand only once. Like-named read-outs stand apart in the source and are kept apart here.

S1P3, sequence (Q99500 whole entry, species assumed): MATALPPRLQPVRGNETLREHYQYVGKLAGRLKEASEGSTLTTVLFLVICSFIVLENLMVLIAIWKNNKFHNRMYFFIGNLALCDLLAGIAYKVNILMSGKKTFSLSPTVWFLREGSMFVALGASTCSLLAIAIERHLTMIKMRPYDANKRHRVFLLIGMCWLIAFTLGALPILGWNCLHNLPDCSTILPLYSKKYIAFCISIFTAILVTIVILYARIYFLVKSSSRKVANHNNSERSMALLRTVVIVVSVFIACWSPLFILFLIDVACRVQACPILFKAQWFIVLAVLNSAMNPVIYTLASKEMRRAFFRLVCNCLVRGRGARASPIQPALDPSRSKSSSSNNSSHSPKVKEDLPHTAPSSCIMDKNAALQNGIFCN
S1P1 (Homo sapiens, UniProt P21453), sequence (P21453 whole entry, species assumed): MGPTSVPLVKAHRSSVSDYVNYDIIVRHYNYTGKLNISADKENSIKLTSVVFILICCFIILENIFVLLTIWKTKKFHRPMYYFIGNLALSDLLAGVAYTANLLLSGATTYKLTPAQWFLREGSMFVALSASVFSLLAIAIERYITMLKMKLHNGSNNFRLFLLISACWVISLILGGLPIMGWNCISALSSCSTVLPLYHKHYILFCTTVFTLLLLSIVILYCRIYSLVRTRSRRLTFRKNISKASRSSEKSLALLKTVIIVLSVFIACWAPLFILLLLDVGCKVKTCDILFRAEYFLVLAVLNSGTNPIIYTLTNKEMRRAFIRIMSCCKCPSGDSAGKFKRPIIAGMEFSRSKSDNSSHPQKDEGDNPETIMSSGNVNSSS
S1P2, sequence (O95136 whole entry, species assumed): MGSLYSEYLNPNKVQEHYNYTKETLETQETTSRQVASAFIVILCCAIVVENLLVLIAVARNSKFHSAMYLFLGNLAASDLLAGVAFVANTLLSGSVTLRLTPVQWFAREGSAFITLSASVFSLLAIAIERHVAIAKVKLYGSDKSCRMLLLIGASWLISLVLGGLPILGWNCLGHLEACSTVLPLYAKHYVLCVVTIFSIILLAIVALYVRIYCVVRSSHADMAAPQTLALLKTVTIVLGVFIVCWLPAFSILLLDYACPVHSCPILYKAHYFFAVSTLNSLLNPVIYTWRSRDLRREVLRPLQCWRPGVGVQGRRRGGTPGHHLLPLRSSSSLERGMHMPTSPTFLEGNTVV
S1P5, sequence (Q9H228 whole entry, species assumed): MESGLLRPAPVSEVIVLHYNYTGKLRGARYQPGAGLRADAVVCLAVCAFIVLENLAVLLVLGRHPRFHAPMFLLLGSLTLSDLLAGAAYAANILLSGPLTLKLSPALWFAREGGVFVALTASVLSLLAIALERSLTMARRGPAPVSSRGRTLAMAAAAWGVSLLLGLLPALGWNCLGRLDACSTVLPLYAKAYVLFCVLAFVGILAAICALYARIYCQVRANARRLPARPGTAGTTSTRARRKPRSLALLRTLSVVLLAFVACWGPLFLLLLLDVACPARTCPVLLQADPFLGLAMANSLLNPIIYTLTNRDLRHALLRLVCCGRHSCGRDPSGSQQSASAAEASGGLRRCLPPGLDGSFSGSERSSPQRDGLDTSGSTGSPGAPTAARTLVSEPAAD
T2 sequence (O08530 whole entry): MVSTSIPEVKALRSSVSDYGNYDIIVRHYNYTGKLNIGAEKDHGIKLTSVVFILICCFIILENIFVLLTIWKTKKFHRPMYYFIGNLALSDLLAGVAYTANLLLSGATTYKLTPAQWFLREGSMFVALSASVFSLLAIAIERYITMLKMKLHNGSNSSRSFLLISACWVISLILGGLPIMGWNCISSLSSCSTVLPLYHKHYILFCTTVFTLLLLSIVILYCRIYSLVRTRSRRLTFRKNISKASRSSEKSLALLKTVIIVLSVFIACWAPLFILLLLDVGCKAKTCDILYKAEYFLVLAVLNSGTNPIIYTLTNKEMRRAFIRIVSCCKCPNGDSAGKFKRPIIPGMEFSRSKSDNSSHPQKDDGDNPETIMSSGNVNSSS
Text for S1P2-5: as §2
Text for S1P5: as §2

As for `CN(CCCO)Cc1ccc(-c2noc(-c3ccc(OCC[18F])c(C(F)(F)F)c3)n2)cc1F` [[^18F]TZ82112], in [1] (EAE rat model of MS, PET), the “spinal cord uptake compared to the normal controls” value is “increased spinal cord uptake”. In addition, in series [1] (ex-vivo rat biodistribution), the “brain uptake and washout” value is “high initial brain uptake and good brain washout kinetics”. The “radiometabolite in brain tissue” value in [2] (rat brain tissue samples) is “no radioactive metabolite”. Besides, the radiometabolite in plasma entry in series [2] (rat plasma) is listed as “quickly generated a high percentage of a radiometabolite”. Besides, the “percentage of the same radiometabolite in plasma” value in series [3] was “much lower”. Besides, the “brain uptake after pretreatment with cold TZ82112” value in the series on S1PR1 is reported as “reduce the its brain uptake”.
As a reminder, the IC50 is the concentration needed to halve the response being measured. Consider `CN(CCCO)Cc1ccc(-c2noc(-c3ccc(OCCF)c(C(F)(F)F)c3)n2)cc1F` [TZ82-112], for which the IC50 at S1P2 is > 1000 nM; on S1P3 it was 746 nM; on S1P5 (setting [6]), 234 nM; on S1P5 (setting [7]) it was > 1000 nM; at S1P1 [4] (IC50 (nM) S1P1, Table 5), 15.8 nM; on S1P1 [4] (IC50 for S1P1 (nM), Table 6, single determinations), 15.8 nM and 2.03 nM and 8.17 nM. In addition, at S1P4, the IC50 was > 1000 nM.
As to `OCCOCc1ccc(-c2noc(-c3ccc(OCC[18F])c(C(F)(F)F)c3)n2)cc1` [[^18F]TZ4877], the “brain uptake, infected versus sham mice” value at S1P1 [5] is “higher uptake in infected mice”. Also, the IC50 in the series with S1P2-5 (read-out: IC50 for S1P2-5) is > 1000 nM.
As for `Cc1ccccc1-c1ccc(-c2nc(-c3ccc(CN(C)CCCC(=O)O)c(F)c3)no2)cc1C(F)(F)F` [TZ82-48], the 50% inhibitory concentration (IC50) on S1P2 is > 1000 nM; on S1P3, 189 nM; at S1P5 (setting [6]), 23.1 nM; at S1P5 (setting [7]), 194 nM; on S1P1 [4] (IC50 for S1P1, running text) it was < 20 nM; on S1P1 [4] (setting [8]) it was 0.8 ± 0.2 nM. The IC50 in the series with S1P2-5 (setting [9]) and on S1P4 was > 1000 nM in each case. Further, the “IC50 for S1P1 (nM)” value at S1P1 [4] (Table 6, single determinations) was “Not detected”. In addition, the “selectivity over S1P2-5” value with S1P2-5 is given as “good selectivity”.
`Cc1ccccc1-c1ccc(-c2nc(-c3ccc(CN(C)CCCO)c(F)c3)no2)cc1C(F)(F)F` [TZ82-52]: the IC50 was > 1000 nM at S1P2, 418 nM on S1P3 and > 1000 nM on S1P4.
For `Cc1ccccc1-c1ccc(-c2nc(-c3ccc(CN(C)CCO)c(F)c3)no2)cc1C(F)(F)F` [TZ82-51], the IC50 at S1P2 is > 1000 nM; at S1P3 it was 454 nM; at S1P4, > 1000 nM.
As for `Cc1ccccc1-c1ccc(-c2nc(-c3ccc(CN(C)CC(=O)O)c(F)c3)no2)cc1C(F)(F)F` [TZ82-47], the half-maximal inhibitory concentration (IC50) is > 1000 nM on S1P2; 77.3 nM on S1P5 (setting [6]); < 20 nM at S1P1 [4] (IC50 for S1P1, running text); 7.6 ± 0.2 nM at S1P1 [4] (setting [8]); > 1000 nM in the series on S1P2-5 (setting [9]); > 1000 nM at S1P4. Further, on S1P3, the “IC50 for S1P3 (nM)” value is “Not fit”. The “IC50 for S1P5 (nM)” value on S1P5 (Table 6) is recorded as “Not fit”. On S1P1 [4] (Table 6, single determinations), the “IC50 for S1P1 (nM)” value is on record as “Not detected”. Moreover, in the series on S1P2-5, the “selectivity over S1P2-5” value is recorded as “good selectivity”.
With `CN(CCC(=O)O)Cc1ccc(-c2noc(-c3ccc(OCCF)c(C(F)(F)F)c3)n2)cc1F` [TZ82-24], the IC50 at S1P2, on S1P3 and on S1P4 was > 1000 nM throughout.
